Entries after “also recorded” stand apart in the source; their conditions may differ.
Legend:
[1] = in vivo; cited from earlier work
[2] = tested on: carrageenan-induced hind paw inflammation in rats; assay: Carrageenan-induced paw oedema rat model, paw volume measurements; assay type: in vivo; conditions: RGC 400 mg/kg oral or indomethacin 2 mg/kg 2 h before carrageenan, two-way ANOVA, Bonferroni, p<0.001
Text: The aim of the present study was to evaluate in vivo anti-inflammatory activity of RGC (Red Grape Cells) made according to the large scale process of the invention in an acute inflammation model in rats so as to verify the efficiency of the cells produced according to the invention. One of the experimental models most widely used to study acute inflammation in rodents is that based on the intraplantar administration of carrageenan. The study assessed the efficacy of the RGC by two methods: • 1. Paw volume measurements • 2. Inflammatory nociception in freely moving rats • Red Grape Cells (RGC) prepared according to example 1. • RGC was administered orally at dose of 400 mg/kg body weight as a suspension in sterile drinking water, 2 h before carrageenan injection. The dose level was 40 mg/ml. Each rat was dosed with 1 ml of suspension per 100 g body weight. • RGC Composition: […] Rats were divided into three groups of eight rats in each group. The rats in all groups were injected with 1% Carrageenan ([…]) or sterile saline (0.9% NaCl) into the sub plantar tissue of left hind paw of each rat. The Following Tests were Performed: • paw volumes were measured hourly just before carrageenan injection at time point 0 and 1, 2, 4 hours after injection using caliper. • The paw dimensions were measured in two axes and paw volume was calculated. […]

[3] = tested on: carrageenan-induced behavioral hyperalgesia in rats; assay: Hot plate method for measuring inflammatory nociception in freely moving rats; assay type: in vivo, rat; conditions: RGC 400 mg/kg oral (p<0.01) or indomethacin 2 mg/kg (p<0.05-0.01)
Experimental: The study assessed the efficacy of the RGC by two methods: • 1. Paw volume measurements • 2. Inflammatory nociception in freely moving rats • Red Grape Cells (RGC) prepared according to example 1. • RGC was administered orally at dose of 400 mg/kg body weight as a suspension in sterile drinking water, 2 h before carrageenan injection. The dose level was 40 mg/ml. Each rat was dosed with 1 ml of suspension per 100 g body weight. • RGC Composition: […] Rats were divided into three groups of eight rats in each group. The rats in all groups were injected with 1% Carrageenan ([…]) or sterile saline (0.9% NaCl) into the sub plantar tissue of left hind paw of each rat. The Following Tests were Performed: The hot plate method was used to determine inflammatory nociception in freely moving rates. After inducing edema and treatment with vehicle, indomethacin or RGC preparation, the rats were placed on a hot plate maintained at a temperature of 55±0.5° C. The latency to flick or lick the hind paw or jump from the hot plate in comparison to its baseline was considered as the reaction time. […]

[4] = Solubility assay of RES sources in water vs 80% methanol; assay type: physicochemical
Experimental: RGC, synthetic resveratrol (S-RES; Sigma-Aldrich) and resveratrol extract from the plant Polygonum Capsidatum (plant-RES) were dissolved in 80% methanol to achieve 100% dissolution. Then, all RES sources were dissolved in water at pH 2 and pH 7 and the percentage of dissolution in water was compared to the dissolution in methanol. The RES in all samples was monitored at 306 nm, based on its characteristic absorption profile, and its concentration was determined by a calibration curve of resveratrol analytical standard.

Oc1ccc(/C=C/c2cc(O)cc(O)c2)cc1
shape of concentration time curve [1]: distinct single concentration peak

COc1ccc2c(c1)c(CC(=O)O)c(C)n2C(=O)c1ccc(Cl)cc1 [indomethacin]
paw edema (volume %), comparison to control group (1M) [2]: statistically significant difference at 2 and 4 h
Hot plate latency delta, baseline-actual time, comparison to vehicle control (1M) ([3]; FIG. 3): significant decrease in the latency delta of response to the thermal stimulus, 2 and 4 hours after carrageenan injection; also recorded: statistically significant difference at 2 and 4 h
Hot plate latency, % from baseline, comparison to control group (1M) ([3]; hot plate 55°C, FIG. 2): statistically significant difference at 2 and 4 h

resveratrol (trans-3,5,4′-trihydroxystilbene) [Synthetic-RES]
dissolution in 80% methanol solution ([4]; 80% methanol): completely dissolved
dissolution of RES in water, percentage compared to dissolution in methanol ([4]; acidified water pH=2 as well as pH 7.0, RES monitored at 306 nm, FIG. 5): 7%
